Assay type in all cases: cell-based
For test [1], the target named is T1, pig TRPM8 (Sus scrofa, UniProt F1SM15).
T1 construct: expressed in transfected cells; host or cells: CHO (pcDNA5/FRT/TO vector; hygromycin B and blasticidin selection)
The experiment in a line: In vitro pig TRPM8 automated patch-clamp assay (SyncroPatch 384PE, CHO cells). Particulars: CHO cells expressing pig TRPM8, 28° C. The protocol:
(§1) In Vitro Pig and Human TRPM8 Automated Patch-Clamp Assays
(§2) Automated whole-cell recordings of compound effects were performed on the SyncroPatch 384PE (Nanion Technologies, Munich, Germany) incorporated into a Biomek FX pipetting robot (Beckman Coulter, Jersey City, NJ, USA) using the same engineered CHO cell lines expressing human or pig TRPM8 channels. Data acquisition and analysis were performed with the proprietary software PatchControl 384 and DataControl 384, respectively (Nanion Technologies, Munich, Germany). All recordings were carried out using planar borosilicate glass patch clamp chips in a 384-microtiter plate format with patch hole resistances of 2-4 MO. For recordings, standard intracellular solution was used containing (in mM): 130 KF, 4 NaCl, 1 MgCl2, 0.5 CaCl2, 10 HEPES and 10 EGTA/KOH (pH 7.2) and standard extracellular solution contained in mM: 150 NaCl, 4 KCl, 0.5 CaCl2, 1 MgCl2 and 10 HEPES (pH 7.3).
(§3) Prior to the electrophysiological measurements, cells were harvested using Accutase (GIBCO, Fisher Scientific) and resuspended in warmed extracellular solution. The cell suspension was kept in the dedicated cell reservoir at 28° C. at a 1 million/ml cell density and shaken at 500 rounds per min (rpm). Experiments were performed at 28° C. throughout. Cells were distributed in high resistance 4-holes-per-well Nanion chips where they were caught on the patch holes by application of a −80 mbar pressure. The cell membrane was ruptured to obtain the whole-cell configuration with a pressure pulse of −250 mbar for 2 seconds. Voltage protocols were constructed using PatchControl 384. The cells were held at a holding potential of −60 mV and TRPM8 currents were recorded using a ramp protocol from −80 to +80 mV every 5 seconds before and after compound addition. Resulting currents were recorded at both −80 and +80 mV and current kinetics were exported and analyzed. From each plate, control wells with 200 μM menthol were recorded to validate the assay. One concentration of compound was applied to each of the other wells. For each concentration, compound response was determined by subtracting the baseline current recorded before compound addition from the maximum peak elicited currents obtained after compound addition. Then, each compound response was normalized to control condition without compound and maximum current (Emax) obtained for each compound. Nanion DataControl 384 software plotted current response for each compound concentration and was able to calculate an EC50 value for each active compound.
In general terms: The patch-clamp technique gives a direct electrical read-out from membranes.

Test [2] has as its target T2, human TRPM8 (Homo sapiens, UniProt Q7Z2W7).
T2 construct: expressed in transfected cells; host or cells: CHO (p658 mammalian expression vector)
The experiment in a line: In vitro human TRPM8 automated patch-clamp assay (SyncroPatch 384PE, CHO cells). The following applies: CHO cells expressing human TRPM8, 28° C. The protocol:
as §1, §2, §3

Test [3] addresses T2, human TRPM8. The experiment in a line: In vitro human TRPM8 fluorescence calcium flux assay (recombinant CHO cells, Fluo4-AM, FDSS6000). The following applies: recombinant CHO cells expressing human TRPM8; menthol-related EC50, normalized to 100 μM menthol. The essentials: (§4)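 CHO cells stably expressing pig or human TRPM8, loaded with 2 μM Fluo4-AM in HBSS/20 mM HEPES/0.1% BSA/2.5 mM probenecid for 1 h at RT. Intracellular calcium read kinetically for 3 min after compound addition. EC50 from sixteen-point curves, normalized to 100 μM menthol maximal response.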

In test [4] the target is T1, pig TRPM8. The experiment in a line: In vitro pig TRPM8 fluorescence calcium flux assay (recombinant CHO cells, Fluo4-AM, FDSS6000). The following applies: recombinant CHO cells expressing pig TRPM8; menthol-related EC50, normalized to 100 μM menthol. The essentials:
as §4
Background: Calcium assays in cells follow changes in intracellular calcium, usually with a dye or a luminescent sensor.

Our source for the EC50 values is patent US20240124408A1 (Sanofi, priority 2020, published 2024).

As a reminder, the EC50 is the midpoint of the concentration-response curve.

SMILES strings stand for the structures.

T1 sequence (F1SM15 1-1104): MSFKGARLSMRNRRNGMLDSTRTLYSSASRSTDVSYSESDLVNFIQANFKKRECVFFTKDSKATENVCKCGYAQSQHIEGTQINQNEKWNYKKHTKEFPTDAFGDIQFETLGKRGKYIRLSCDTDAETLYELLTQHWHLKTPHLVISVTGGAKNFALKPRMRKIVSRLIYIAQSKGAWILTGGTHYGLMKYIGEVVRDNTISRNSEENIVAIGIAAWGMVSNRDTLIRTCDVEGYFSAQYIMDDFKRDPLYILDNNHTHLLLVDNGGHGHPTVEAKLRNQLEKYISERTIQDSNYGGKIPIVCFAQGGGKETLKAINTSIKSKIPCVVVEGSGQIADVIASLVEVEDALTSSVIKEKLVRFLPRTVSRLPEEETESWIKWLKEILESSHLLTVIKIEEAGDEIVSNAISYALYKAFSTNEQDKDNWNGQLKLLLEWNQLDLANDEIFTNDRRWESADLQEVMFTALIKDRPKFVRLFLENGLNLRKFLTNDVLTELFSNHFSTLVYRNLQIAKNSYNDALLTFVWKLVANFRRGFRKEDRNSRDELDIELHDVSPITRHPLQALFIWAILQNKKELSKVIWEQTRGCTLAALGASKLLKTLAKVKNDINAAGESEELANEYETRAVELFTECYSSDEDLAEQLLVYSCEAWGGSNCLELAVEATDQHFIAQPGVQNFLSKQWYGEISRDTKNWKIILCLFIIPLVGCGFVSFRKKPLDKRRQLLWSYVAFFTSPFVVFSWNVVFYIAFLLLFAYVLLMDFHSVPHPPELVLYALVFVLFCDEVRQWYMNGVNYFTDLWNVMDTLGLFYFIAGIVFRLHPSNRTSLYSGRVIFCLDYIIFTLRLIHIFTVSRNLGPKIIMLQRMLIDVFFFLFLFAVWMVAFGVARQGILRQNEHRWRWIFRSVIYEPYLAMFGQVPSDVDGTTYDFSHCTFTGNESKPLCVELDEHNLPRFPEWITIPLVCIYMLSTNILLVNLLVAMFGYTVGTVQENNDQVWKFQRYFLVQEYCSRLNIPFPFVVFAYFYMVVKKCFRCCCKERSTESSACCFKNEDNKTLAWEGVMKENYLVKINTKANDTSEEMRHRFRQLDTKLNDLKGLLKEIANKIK
T2 sequence (Q7Z2W7 whole entry): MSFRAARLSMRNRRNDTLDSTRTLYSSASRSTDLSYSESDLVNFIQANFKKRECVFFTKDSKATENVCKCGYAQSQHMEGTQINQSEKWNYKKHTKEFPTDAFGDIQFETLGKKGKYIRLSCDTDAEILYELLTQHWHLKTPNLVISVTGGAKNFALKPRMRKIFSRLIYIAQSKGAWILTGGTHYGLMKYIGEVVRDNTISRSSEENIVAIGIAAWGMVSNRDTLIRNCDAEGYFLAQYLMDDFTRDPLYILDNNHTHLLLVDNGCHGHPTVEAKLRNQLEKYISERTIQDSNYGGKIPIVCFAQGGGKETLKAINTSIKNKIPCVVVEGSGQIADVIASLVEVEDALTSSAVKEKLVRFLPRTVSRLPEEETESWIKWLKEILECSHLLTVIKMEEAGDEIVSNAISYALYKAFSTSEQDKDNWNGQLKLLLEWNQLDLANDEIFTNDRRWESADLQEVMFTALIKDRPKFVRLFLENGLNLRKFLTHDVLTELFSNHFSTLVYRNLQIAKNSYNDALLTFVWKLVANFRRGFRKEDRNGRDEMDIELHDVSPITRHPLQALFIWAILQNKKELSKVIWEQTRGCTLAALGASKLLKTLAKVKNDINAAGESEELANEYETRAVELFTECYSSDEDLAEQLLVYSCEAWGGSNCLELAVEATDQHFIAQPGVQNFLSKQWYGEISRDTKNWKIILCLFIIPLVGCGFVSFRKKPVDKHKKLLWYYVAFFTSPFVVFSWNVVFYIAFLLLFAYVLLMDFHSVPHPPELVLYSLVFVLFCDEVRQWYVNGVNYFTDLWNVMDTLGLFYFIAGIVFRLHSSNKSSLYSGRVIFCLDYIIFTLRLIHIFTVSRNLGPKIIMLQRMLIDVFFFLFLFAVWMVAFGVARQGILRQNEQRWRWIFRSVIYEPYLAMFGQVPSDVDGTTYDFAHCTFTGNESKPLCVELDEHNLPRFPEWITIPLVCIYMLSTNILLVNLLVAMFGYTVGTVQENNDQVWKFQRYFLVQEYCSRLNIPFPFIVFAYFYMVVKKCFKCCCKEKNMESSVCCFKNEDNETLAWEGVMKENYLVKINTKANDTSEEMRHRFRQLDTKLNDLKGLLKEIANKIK

Consider `CC(C)[C@@H]1CC[C@@H](C)C[C@@]1(O)C(=O)NCCc1ccncc1` [Example 119, (1S,2S,5R)-1-hydroxy-2-isopropyl-5-methyl-N-[2-(4-pyridyl)ethyl]cyclohexanecarboxamide], for which the EC50 on pig TRPM8 [1] came to 7.21 µM; on human TRPM8 [2], 3.2 µM; at human TRPM8 [3], 0.0374 µM; at pig TRPM8 [4] it was 0.0063 µM.

Take `COC(=O)c1ccccc1CCNC(=O)[C@]1(O)C[C@H](C)CC[C@H]1C(C)C` [Example 106, methyl 2-(2-((1S,2S,5R)-1-hydroxy-2-isopropyl-5-methylcyclohexane-1-carboxamido)ethyl)benzoate]: the 50% effective concentration (EC50) on pig TRPM8 [1] was more than 10 µM; on human TRPM8 [3] it was 0.0293 µM; on pig TRPM8 [4], 0.0232 µM.

Regarding `CC(CNC(=O)[C@]1(O)C[C@H](C)CC[C@H]1C(C)C)c1ccccc1` (stereo partly drawn) [Example 156, (1S,2S,5R)-1-hydroxy-2-isopropyl-5-methyl-N-(2-phenylpropyl)cyclohexanecarboxamide], the EC50 on pig TRPM8 [1] stood at 1.9 µM; at human TRPM8 [2], 1.8 µM; at human TRPM8 [3], 0.0424 µM; on pig TRPM8 [4], 0.0215 µM.

As to `COc1ccccc1C(F)(F)CNC(=O)[C@]1(O)C[C@H](C)CC[C@H]1C(C)C` [Example 186, (1S,2S,5R)—N-[2,2-difluoro-2-(2-methoxyphenyl)ethyl]-1-hydroxy-2-isopropyl-5-methyl-cyclohexanecarboxamide], the EC50 on pig TRPM8 [1] was 2.1 µM; at human TRPM8 [2], 1 µM; on human TRPM8 [3], 0.0439 µM; on pig TRPM8 [4], 0.0261 µM.

On to `CC(C)[C@@H]1CC[C@@H](C)C[C@@]1(O)C(=O)NC[C@@H](F)c1ccccc1` [Example 180, (1S,2S,5R)—N-((2S)-2-fluoro-2-phenylethyl)-1-hydroxy-2-isopropyl-5-methylcyclohexane-1-carboxamide], for which the EC50 on pig TRPM8 [1] was found to be 1.01 µM; at human TRPM8 [2] it was 1.7 µM; at human TRPM8 [3], 0.003 µM; on pig TRPM8 [4], 0.0012 µM.

On to `CC(C)[C@@H]1CC[C@@H](C)C[C@@]1(O)C(=O)NCCc1cccc2c1OCC2` [Example 159, (1S,2S,5R)-N-[2-(2,3-dihydrobenzofuran-7-yl)ethyl]-1-hydroxy-2-isopropyl-5-methyl-cyclohexanecarboxamide], for which the EC50 stood at 1.03 µM at pig TRPM8 [1], 1 µM on human TRPM8 [2], 0.0092 µM at human TRPM8 [3] and 0.0049 µM on pig TRPM8 [4].

In the case of `COC(=O)COc1ccccc1CCNC(=O)[C@]1(O)C[C@H](C)CC[C@H]1C(C)C` [Example 61, methyl 2-(2-(2-((1S,2S,5R)-1-hydroxy-2-isopropyl-5-methylcyclohexane-1-carboxamido)ethyl)phenoxy)acetate], the concentration giving a half-maximal response (EC50) at pig TRPM8 [1] came out at 5.05 µM; on human TRPM8 [2] it was 2.91 µM; on human TRPM8 [3], 0.0111 µM; on pig TRPM8 [4], 0.0074 µM.

As to `COC(=O)c1cccc(CCNC(=O)[C@]2(O)C[C@H](C)CC[C@H]2C(C)C)c1` [Example 107, methyl 3-(2-((1S,2S,5R)-1-hydroxy-2-isopropyl-5-methylcyclohexane-1-carboxamido)ethyl)benzoate], the concentration giving a half-maximal response (EC50) was found to be 2.44 µM at pig TRPM8 [1], 3.8 µM on human TRPM8 [2], 0.0428 µM on human TRPM8 [3] and 0.0217 µM at pig TRPM8 [4].

On to `CC(C)[C@@H]1CC[C@@H](C)C[C@@]1(O)C(=O)NCC(=O)Oc1ccccc1` [Example 67, phenyl ((1S,2S,5R)-1-hydroxy-2-isopropyl-5-methylcyclohexane-1-carbonyl)glycinate], for which the EC50 is 3.36 µM at pig TRPM8 [1], 2.7 µM on human TRPM8 [2], 0.009 µM on human TRPM8 [3] and 0.005 µM at pig TRPM8 [4].

In the case of `CC(C)[C@@H]1CC[C@@H](C)C[C@@]1(O)C(=O)NCCc1ccccc1OCCO` [Example 7, (1S,2S,5R)-1-hydroxy-N-(2-(2-hydroxyethoxy)phenethyl)-2-isopropyl-5-methylcyclohexane-1-carboxamide], the EC50 was 6.19 µM on pig TRPM8 [1], 2.8 µM on human TRPM8 [2], 0.0085 µM at human TRPM8 [3] and 0.0081 µM on pig TRPM8 [4].

Take `CC(C)[C@@H]1CC[C@@H](C)C[C@@]1(O)C(=O)NCC(NC(=O)CN)c1ccccc1` (single isomer, unassigned) [Example 183]: the EC50 on pig TRPM8 [1] turned out to be 0.02 µM; at human TRPM8 [2], 0.12 µM; on human TRPM8 [3] it was 0.0027 µM; on pig TRPM8 [4], 0.0028 µM.

Regarding `CC(C)[C@@H]1CC[C@@H](C)C[C@@]1(O)C(=O)NC[C@@H](O)c1cccc(CO)c1` [Example 44, (1S,2S,5R)-1-hydroxy-N-((2S)-hydroxy-2-(3-(hydroxymethyl)phenyl)ethyl)-2-isopropyl-5-methylcyclohexane-1-carboxamide], the EC50 at pig TRPM8 [1] stood at 0.711 µM; on human TRPM8 [2], 1.8 µM; at human TRPM8 [3], 0.0349 µM; at pig TRPM8 [4], 0.0106 µM.

For the compound `CC(C)[C@@H]1CC[C@@H](C)C[C@@]1(O)C(=O)NCC1(O)CCc2ccccc21` (stereo partly drawn) [Example 23, (1S,2S,5R)-1-hydroxy-N-((1-hydroxy-2,3-dihydro-1H-inden-1-yl)methyl)-2-isopropyl-5-methylcyclohexane-1-carboxamide], the concentration for a half-maximal effect (EC50) came out at 1.07 µM at pig TRPM8 [1], 0.5 µM on human TRPM8 [2], 0.007 µM at human TRPM8 [3] and 0.006 µM at pig TRPM8 [4].

Consider `CC(C)[C@@H]1CC[C@@H](C)C[C@@]1(O)C(=O)NCCO` [Example 110, (1S,2S,5R)-1-hydroxy-N-(2-hydroxyethyl)-2-isopropyl-5-methylcyclohexane-1-carboxamide], for which the EC50 on pig TRPM8 [1] was more than 10 µM; on human TRPM8 [3], 1.64 µM; at pig TRPM8 [4], 0.639 µM.

In the case of `CC(C)[C@@H]1CC[C@@H](C)C[C@@]1(O)C(=O)NCC(=O)NCc1ccccc1` [Example 30, (1S,2S,5R)—N-(2-(benzylamino)-2-oxoethyl)-1-hydroxy-2-isopropyl-5-methylcyclohexane-1-carboxamide], the results for the EC50 on pig TRPM8 [1], on human TRPM8 [3] and on pig TRPM8 [4] were more than 10 µM, 3.25 µM and 0.766 µM, respectively.

Consider `CC(C)[C@@H]1CC[C@@H](C)C[C@@]1(O)C(=O)NCC1COc2ccccc21` (stereo partly drawn) [Example 162, (1S,2S,5R)-N-(2,3-dihydrobenzofuran-3-ylmethyl)-1-hydroxy-2-isopropyl-5-methyl-cyclohexanecarboxamide], for which the 50% effective concentration (EC50) on pig TRPM8 [1] turned out to be 1.4 µM; on human TRPM8 [3], 0.0053 µM; on pig TRPM8 [4], 0.004 µM.

As for `COC(=O)CO[C@H](CNC(=O)[C@]1(O)C[C@H](C)CC[C@H]1C(C)C)c1ccccc1` [Example 57, methyl 2-((S)-2-((1S,2S,5R)-1-hydroxy-2-isopropyl-5-methylcyclohexane-1-carboxamido)-1-phenylethoxy)acetate], the EC50 is more than 10 µM on pig TRPM8 [1], 0.254 µM on human TRPM8 [3] and 0.219 µM at pig TRPM8 [4].

In the case of `CC(C)[C@@H]1CC[C@@H](C)C[C@@]1(O)C(=O)N[C@H](CCO)c1ccccc1` [Example 86, (1S,2S,5R)-1-hydroxy-N—((R)-3-hydroxy-1-phenylpropyl)-2-isopropyl-5-methylcyclohexane-1-carboxamide], the results for the EC50 on pig TRPM8 [1], on human TRPM8 [3] and at pig TRPM8 [4] were more than 10 µM, 0.547 µM and 0.749 µM, respectively.

In the case of `COc1ccc(NC(=O)[C@]2(O)C[C@H](C)CC[C@H]2C(C)C)cc1` [Example 174, (1S,2S,5R)-1-hydroxy-N-(4-methoxyphenyl)-5-methyl-2-propan-2-ylcyclohexane-1-carboxamide], the EC50 on pig TRPM8 [1] was 2.17 µM; on human TRPM8 [3], 0.119 µM; at pig TRPM8 [4], 0.0334 µM.

For `CC(C)[C@@H]1CC[C@@H](C)C[C@@]1(O)C(=O)NC[C@@H](NC(=O)[C@@H](C)N)c1ccccc1` [Example 62, (1S,2S,5R)—N—((S)-2-((R)-2-aminopropanamido)-2-phenylethyl)-1-hydroxy-2-isopropyl-5-methylcyclohexane-1-carboxamide], the results for the 50% effective concentration (EC50) on human TRPM8 [3] and on pig TRPM8 [4] were 0.0016 µM and 0.0023 µM, respectively.

For `[2H]C(O)(CNC(=O)[C@]1(O)C[C@H](C)CC[C@H]1C(C)C)c1ccccc1` (single isomer, unassigned) [Example 92], the EC50 on human TRPM8 [3] came out at 0.0041 µM; at pig TRPM8 [4], 0.0023 µM.
